A short description of data set [1]: Pathology/necropsy and tumor immunohistochemistry in treated xenograft mice.
Excerpt: At necropsy, skin samples were fixed in 10% buffered formalin, embedded in paraffin, sectioned at 5μ and stained with haematoxylin and eosin.
Five mice per treatment from all remaining groups were given a full necropsy at the end of the study.
Tumor samples were fixed by immersion in 10% zinc formalin then processed in a Tissue-Tek® VIP (Sakura) and embedded in paraffin. Sections for immunohistochemistry were cut at 5μ. Pre-immune rabbit or goat serum (Dako Ltd) was used as the negative control. Sections were immersed in Target Retrieval Solution (Dako Ltd) and heated to 94° C. in a steamer (Black & Decker) for 20 minutes. Endogenous peroxidase activity was quenched with 6% H2O2 in methanol for 15 minutes.
For platelet endothelial cell adhesion molecule (PECAM-1, CD31) antigen and EGFR antigen, the sections were incubated overnight at room temperature with a polyclonal goat anti-PECAM-1 IgG (Santa Cruz Biotechnology, Santa Cruz, Calif.) diluted 1:800 in Antibody Diluent (Dako Ltd) or with a polyclonal rabbit anti-EGFR IgG (BioGenex, San Ramon, Calif.) diluted 1:50 in Antibody Diluent (Dako Ltd). Sections were incubated with Vectastain Elite ABC-peroxidase (Vector Laboratories) for 45 minutes at room temperature.
To detect apoptosis, the TUNEL TdT-FragEL™ DNA fragmentation detection kit (Oncogene Research Products, San Diego, Calif.) was used according to the manufacturer's recommendations. For all four antigens, Vector Nova Red (Vector Laboratories) was the final chromogen and haematoxylin the nuclear counterstain.
For data set [2] the following is noted: cited from earlier work.
The format of data set [3] is in vivo. The protocol:
FIG. […]
(§1) Weight loss was calculated as percent change in mean group body weight, using the formula: ((W−W0)/W0)×100 • where ‘W’ represents mean body weight of the treated group at a particular day, and ‘W0’ represents mean body weight of the same group at start of treatment. Maximum weight loss was also calculated using the above formula, giving the maximum percentage of body weight lost at any time in the entire experiment for a particular group. Treatment efficacy was assessed by tumor growth inhibition. Tumour volumes of treated groups were given as percentages of tumor volumes of the control groups (% T/C), using the formula: 100×((T−T0)/(C−C0)) • where ‘T’ represents mean tumor volume of a treated group on a specific day during the experiment, ‘T0’ represented mean tumor volume of the same group on the first day of treatment, C represents mean tumor volume of a control group on a particular day of the experiment, and C0 represents mean tumor volume of the same group on the first day of treatment.

For another data set, the system named is A549 NSCLC xenograft. Type of data set: in vivo. On the procedure: Mice were implanted with A549 NSCLC cells. […] Tumor size was measured 3 times per week. Values are means, n=10.
(§2) H460a cells (provided by Dr Jack Roth, MD, Anderson) were grown in Dulbecco's Modified Eagle Media (DMEM) supplemented with 10% Foetal Bovine Serum (FBS). A549 cells (American Type Culture Collection [Manassas, Va.] were grown in Roswell Park Memorial Institute medium (RPMI) 1640+10% FBS. The cell concentrations for implant were 1×10^7 cells/0.2 mL for H460a and 7.5×10^6 cells/0.2 mL for A549.
(§3) Cells were suspended in phosphate-buffered saline, and implanted subcutaneously in the right flank of each mouse. Once palpable tumours were established, animals were randomised so that all groups had similar starting mean tumour volumes of 100-150 mm^3. Tumour measurements and mouse weights were taken three times per week. Animals were individually monitored throughout the experiment.
All groups were treated daily for 3 weeks.
All groups were treated every 6 days for 3 weeks (a total of three injections).
as §1
(§4) Tumor growth inhibition was calculated using the formula: 100−% T/C
(§5) Tumor volume (mm^3) was calculated using the ellipsoid formula: (Dx(d^2))/2 • where ‘D’ represents the large diameter of the tumor, and ‘d’ represents the small diameter. In some cases, tumor regression and/or percentage change in tumor volume was calculated using the formula: ((T−T0)/T0)×100 • where ‘T’ represents mean tumor volume of the treated group at a particular day, and ‘T0’ represents mean tumor volume of the same treated group at the start of treatment.

A further data set deals with H460a NSCLC xenograft. As to the kind of experiment: Tumor growth inhibition in H460a NSCLC xenograft model. In kind it is in vivo, athymic nude mice. On the procedure:
(§6) Mice were implanted with H460a NSCLC cells. […] Tumor size was measured 3 times per week. Values are means, n=10.
as §6, §2, §3
All groups were treated daily for 3 weeks. […]
Weight loss was calculated as percent change in mean group body weight, using the formula: ((W−W0)/W0)×100 • where ‘W’ represents mean body weight of the treated group at a particular day, and ‘W0’ represents mean body weight of the same group at start of treatment. Maximum weight loss was also calculated using the above formula, giving the maximum percentage of body weight lost at any time in the entire experiment for a particular group. Treatment efficacy was assessed by tumor growth inhibition. […]
as §4, §5

Data set [4] can be described thus: Single-dose pharmacokinetics of erlotinib in non-tumor bearing mice. Type of data set: in vivo, female nu/nu athymic mice. The protocol:
(§7) For single-dose pharmacokinetics (PK), blood samples from three mice per time point were collected by cardiac puncture at 5, 15, 30, 60 minutes and 2, 4, 8, 16, 24 hours post-dose. For chronically treated animals, blood samples from two or three mice per time point were collected via the retro-orbital sinus at 1 and 6 hours. Collection tubes contained ethylene diamine tetra-acetic acid (EDTA) as anticoagulant. Samples were stored at −70° C. […] PK parameters were estimated by non-compartmental analysis of the composite data, using the PK evaluation programme WinNonlin PRO® version 3.1 (Pharsight Inc).
Three animals per time point were evaluated for PK data (FIG. 3).

Data set [5] is described as follows: Chronic-dose plasma and tumor concentrations of erlotinib in tumor-bearing mice. In kind it is in vivo, nu/nu athymic mice. On the procedure:
On day 28 post tumor implant, blood (from the retro-orbital sinus) and tumor samples were collected at 1 and 6 hours post dosing. […] Values are means±SD, n=3.
as §7

Where [6] appears, read: erlotinib monotherapy, treated xenografts.

“Also recorded” adds a separate entry of the source. Read-outs that look alike come from different tables or passages of the source.

`N.N.[Cl][Pt][Cl]` [cisplatin]: in data set [1] (cisplatin alone and in combination, severity dose dependent), the “Primary microscopic kidney lesions” value is “tubular necrosis and tubular basophilia”. The MTD in data set [2] (cisplatin every 4 days x3 i.v. in nude mice (Riccardi 2001)) is given as 4 mg/kg; in data set [2] (cisplatin every 6 days x2 i.v. in nude mice (Perez-Soler 2001)), 4 mg/kg; in data set [2] (cisplatin every 6 days x3 i.p. in C57/B16 mice (van Moorsel 1999)) it was 6 mg/kg; in data set [3] (cisplatin every 6 days x3 i.p., athymic nude mice), 6 mg/kg. Further, the Tumor growth inhibition is 30% in the data set with A549 NSCLC xenograft (cisplatin 1.5 mg/kg, non-significant); 88% in the data set on A549 NSCLC xenograft (cisplatin 6 mg/kg, day 47 post tumor implantation); 42% in the data set on H460a NSCLC xenograft (cisplatin 1.5 mg/kg i.p. every 6 days); 81% in the data set on H460a NSCLC xenograft (cisplatin 6 mg/kg i.p. every 6 days). Also, the “Extent of partial regression” value in the data set with A549 NSCLC xenograft (cisplatin 6 mg/kg) worked out at 2%. Further, in the data set with A549 NSCLC xenograft (cisplatin 6 mg/kg), the “Number of partial regressions” value was “one”.

Consider `C#Cc1cccc(Nc2ncnc3cc(OCCOC)c(OCCOC)cc23)c1` [erlotinib, [6,7-bis(2-methoxyethoxy)-4-quinazolin-4-yl]-(3-ethynylphenyl) amine], for which, in data set [1] (erlotinib 1000 mg/kg (so in the source), both NSCLC xenograft tumor models), the “Ki-67 proliferative index in tumor” value was “mild decrease”. Besides, the “Haematology and clinical chemistry parameters” value in data set [1] (erlotinib monotherapy) is “no changes”. In addition, the “Skin lesions (macroscopic)” value in data set [1] (erlotinib monotherapy (100 mg/kg/day for 21 days), transient) was “substantial reddening and crusting of the skin of the muzzle; also recorded: reddened and flaky”. For the same compound, the “Angiogenesis, microvascular density (MVD) via CD31 staining” value in data set [1] (setting [6]) is “no clear effect”. Moreover, the “Frequency of apoptosis in tumor cells (TUNEL)” value in data set [1] (setting [6]) is listed as “no significant difference”. Further, the “Time of maximum plasma concentration post dose” value in data set [4] (20 and 100 mg/kg single dose by gavage) lay within 0.5 to 1.0 h. In data set [4] (20 vs 100 mg/kg single dose), the “Dose proportionality of exposure (AUC)” value is “dose-proportional”. Besides, the “Mean maximum plasma concentration” value in data set [4] (erlotinib 20 mg/kg single dose by gavage) is ~9,100 ng/mL; in data set [4] (erlotinib 100 mg/kg single dose by gavage), “approximately 24,000 ng/mL”. For the same compound, the Tolerability entry in data set [3] (erlotinib 150 mg/kg for 3 weeks, previous efficacy studies (unpublished observation)) is “well tolerated”. For the same compound, the Toxicity outcome was “marked weight loss and all were euthanized” in data set [3] (erlotinib 200 mg/kg group); “One mouse in the 400 mg/kg group died” in data set [3] (erlotinib 400 mg/kg group). Moreover, the Tumor growth inhibition is reported as 25% with A549 NSCLC xenograft (erlotinib 25 mg/kg, day 47 post tumor implantation) and 93% in the data set with A549 NSCLC xenograft (erlotinib 100 mg/kg, day 47 post tumor implantation). The “Extent of partial regression” value in the data set on A549 NSCLC xenograft (erlotinib 100 mg/kg) is listed as 2%. Moreover, in the data set with A549 NSCLC xenograft (erlotinib 100 mg/kg), the “Number of partial regressions” value is listed as “one”. Moreover, the Tumor regressions entry in the data set on H460a NSCLC xenograft (erlotinib monotherapy dose response study) is “no partial or complete regressions”. In data set [5] (H460a tumor-bearing mice), the “Correlation of tumor concentrations with plasma concentrations” value was “correlated well”. Besides, the “Dose dependence of exposure” value in data set [5] (ascending oral doses 6.3-150.0 mg/kg, tumor-bearing mice) is “dose-dependent and more than dose-proportional”.

Source of the values: patent US7951405B2 (priority 2004, dated 2011).
